Laboratory results as given in patent US8785463B2, “GPR 119 agonists” (Cadila Healthcare Limited, priority 2010, dated 2014).

Target: T1, human GPR 119 receptor (Homo sapiens, UniProt Q8TDV5)
T1 construct: expressed in transfected cells
T1 sequence (Q8TDV5 1-335): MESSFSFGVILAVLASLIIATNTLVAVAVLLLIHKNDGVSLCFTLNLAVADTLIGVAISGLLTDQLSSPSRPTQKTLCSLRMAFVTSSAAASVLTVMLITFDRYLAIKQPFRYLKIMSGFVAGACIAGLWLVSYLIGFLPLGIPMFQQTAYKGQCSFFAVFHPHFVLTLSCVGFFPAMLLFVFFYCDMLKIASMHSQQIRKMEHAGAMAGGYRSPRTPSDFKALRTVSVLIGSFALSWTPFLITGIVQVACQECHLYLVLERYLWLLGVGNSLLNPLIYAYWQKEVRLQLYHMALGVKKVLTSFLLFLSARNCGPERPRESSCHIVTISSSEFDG
Assay: cAMP assay in stable cell line expressing recombinant human GPR 119 receptor
Assay type: cell-based
Settings: DMSO = 1
Description: A stable cell line expressing recombinant human GPR 119 receptor was established and used to investigate the efficacy of the compounds of the invention based on the intracellular levels of cyclic AMP (cAMP) using commercially available cAMP kits.

| SMILES | Fold increase in cyclic AMP with respective to DMSO (10 nM compound) [fold] | Fold increase in cyclic AMP with respective to DMSO (100 nM compound) [fold] | Fold increase in cyclic AMP with respective to DMSO (1 uM compound) [fold] |
| --- | --- | --- | --- |
| Cc1c(Oc2ccc(/C=C3\SC(=O)NC3=O)cc2)ncnc1OC1CCN(C(=O)OC(C)C)CC1 [Example 16, (Z)-iso-Propyl 4-((6-(4-((2,4-dioxothiazolidin-5-ylidene)methyl)phenoxy)-5-methylpyrimidin-4-yl)oxy)piperidine-1-carboxylate] | 1.91 | 2.54 | 3.17 |
| Cc1c(Oc2ccc(/C=C3\SC(=O)NC3=O)cc2)ncnc1OC1CCN(c2ncccn2)CC1 [Example 17, (Z)-5-(4-((5-Methyl-6-((1-(pyrimidin-2-yl)piperidin-4-yl)oxy)pyrimidin-4-yl)oxy)benzylidene)thiazolidine-2,4-dione] | 0.84 | 1.06 | 2.57 |
| Cc1c(OCC2CCCN2C(=O)OC(C)(C)C)ncnc1Oc1ccc(/C=C2\SC(=O)NC2=O)cc1 (stereo not drawn) [Example 18, (Z)-tert-Butyl 2-(((6-(4-((2,4-dioxothiazolidin-5-ylidene)methyl)phenoxy)-5-methylpyrimidin-4-yl)oxy)methyl)pyrrolidine-1-carboxylate] | 1.50 | 2.57 | 4.03 |
| CC(C)(C)OC(=O)N1CCC(Oc2cc(Oc3cccc(/C=C4\SC(=O)NC4=O)c3)ncn2)CC1 [Example 19, (Z)-tert-Butyl 4-((6-(3-((2,4-dioxothiazolidin-5-ylidene)methyl)phenoxy)pyrimidin-4-yl)oxy)piperidine-1-carboxylate] | 1.31 | 1.92 | 4.24 |
| CCOC(=O)N1CCC(Oc2ncnc(Oc3cccc(/C=C4\SC(=O)NC4=O)c3)c2C)CC1 [Example 20, (Z)-Ethyl 4-((6-(3-((2,4-dioxothiazolidin-5-ylidene)methyl)phenoxy)-5-methylpyrimidin-4-yl)oxy)piperidine-1-carboxylate] | 0.59 | 2.02 | 2.39 |
| COC(=O)N1CCC(Oc2ncnc(Oc3cccc(/C=C4\SC(=O)NC4=O)c3)c2C)CC1 [Example 21, (Z)-Methyl 4-((6-(3-((2,4-dioxothiazolidin-5-ylidene)methyl)phenoxy)-5-methylpyrimidin-4-yl)oxy)piperidine-1-carboxylate] | 0.92 | 1.06 | 2.35 |
| Cc1c(Oc2cccc(/C=C3\SC(=O)NC3=O)c2)ncnc1OC1CCN(C(=O)OCC(C)C)CC1 [Example 22, (Z)-iso-Butyl 4-((6-(3-((2,4-dioxothiazolidin-5-ylidene)methyl)phenoxy)-5-methylpyrimidin-4-yl)oxy)piperidine-1-carboxylate] | 0.95 | 1.82 | 1.66 |
| Cc1c(OCC2CCCN2C(=O)OC(C)(C)C)ncnc1Oc1cccc(/C=C2\SC(=O)NC2=O)c1 (stereo not drawn) [Example 23, (Z)-tert-Butyl 2-(((6-(3-((2,4-dioxothiazolidin-5-ylidene)methyl)phenoxy)-5-methylpyrimidin-4-yl)oxy)methyl)pyrrolidine-1-carboxylate] | 0.90 | 1.29 | 1.11 |
| CC(C)(C)OC(=O)N1CCC(Oc2cc(Oc3ccc(/C=C4\SC(=O)N(S(C)(=O)=O)C4=O)cc3)ncn2)CC1 [Example 24, (Z)-tert-Butyl 4-((6-(4-((3-(methylsulfonyl)-2,4-dioxothiazolidin-5-ylidene)methyl)phenoxy)pyrimidin-4-yl)oxy)piperidine-1-carboxylate] | 1.07 | 1.11 | 2.27 |
| Cc1c(Oc2cccc(/C=C3\SC(=O)NC3=O)c2)ncnc1OC1CCN(c2nc(C(C)C)no2)CC1 [Example 25, (Z)-5-(3-((6-((1-(3-Isopropyl-1,2,4-oxadiazol-5-yl)piperidin-4-yl)oxy)-5-methylpyrimidin-4-yl)oxy)benzylidene)thiazolidine-2,4-dione] | 3.32 | 5.81 | 1.39 |
| CCc1cnc(N2CCC(Oc3ncnc(Oc4cccc(/C=C5\SC(=O)NC5=O)c4)c3C)CC2)nc1 [Example 26, (Z)-5-(3-((6-((1-(5-Ethylpyrimidin-2-yl)piperidin-4-yl)oxy)-5-methylpyrimidin-4-yl)oxy)benzylidene)thiazolidine-2,4-dione] | 4.02 | 7.17 | 9.34 |
| O=C1NC(=O)/C(=C/c2cccc(Oc3cc(OC4CCN(C(=O)OCc5ccccc5)CC4)ncn3)c2)S1 [Example 29, (Z)-Benzyl 4-((6-(3-((2,4-dioxothiazolidin-5-ylidene)methy 1)phenoxy)pyrimidin-4-yl)oxy)piperidine-1-carboxylate] | 2.09 | 3.66 | 8.17 |
| CCN1C(=O)S/C(=C\c2ccc(Oc3cc(OC4CCN(C(=O)OC(C)(C)C)CC4)ncn3)cc2)C1=O [Example 31, (Z)-tert-Butyl 4-((6-(4-((3-ethyl-2,4-doxothiazolidin-5-ylidene)methyl)phenoxy)pyrimidin-4-yl)oxy)piperidine-1-carboxylate] | 1.06 | 2.27 | 3.66 |

Next, values leading:

| Fold increase in cyclic AMP with respective to DMSO (10 nM compound) [fold] | Fold increase in cyclic AMP with respective to DMSO (100 nM compound) [fold] | Fold increase in cyclic AMP with respective to DMSO (1 uM compound) [fold] | SMILES |
| --- | --- | --- | --- |
| 1.38 | 2.89 | 4.79 | Cc1c(Oc2cccc(/C=C3\SC(=O)NC3=O)c2)ncnc1OC1CCN(Cc2ccccc2)CC1 [Example 27, (Z)-5-(3-((6-((1-Benzylpiperidin-4-yl)oxy)-5-methylpyrimidin-4-yl)oxy)benzylidene)thiazolidine-2,4-dione] |
| 1.32 | 2.86 | 4.56 | Cc1c(Oc2cccc(/C=C3\SC(=O)NC3=O)c2)ncnc1OC1CCN(c2ncccn2)CC1 [Example 28, (Z)-5-(3-((5-Methyl-6-((1-(pyrimidin-2-yl)piperidin-4-yl)oxy)pyrimidin-4-yl)oxy)benzylidene)thiazolidine-2,4-dione] |
| 2.29 | 3.59 | 7.4 | O=C1NC(=O)/C(=C/c2ccc(Oc3cc(OC4CCN(C(=O)OCc5ccccc5)CC4)ncn3)cc2)S1 [Example 30, (Z)-Benzyl 4-((6-(4-((2,4-dioxothiazolidin-5-ylidene)methyl)phenoxy)pyrimidin-4-yl)oxy)piperidine-1-carboxylate] |
| 0.77 | 0.94 | 1.45 | COC(=O)N1CCC(Oc2ncnc(Oc3cccc(/C=C4\SC(=O)N(C(C)C)C4=O)c3)c2C)CC1 [Example 32, (Z)-Methyl 4-((6-(3-((3-isopropyl-2,4-dioxothiazolidin-5-ylidene)methyl)phenoxy)-5-methylpyrimidin-4-yl)oxy)piperidine-1-carboxylate] |
| 0.83 | 1.36 | 2.72 | CC(C)COC(=O)N1CCC(Oc2cc(Oc3cccc(/C=C4\SC(=O)NC4=O)c3)ncn2)CC1 [Example 33, (Z)-Isobutyl 4-((6-(3-((2,4-dioxothiazolidin-5-ylidene)methyl)phenoxy)pyrimidin-4-yl)oxy)piperidine-1-carboxylate] |
| 0.73 | 1.09 | 2.22 | CC(C)COC(=O)N1CCC(Oc2cc(Oc3ccc(/C=C4\SC(=O)NC4=O)cc3)ncn2)CC1 [Example 34, (Z)-Isobutyl 4-((6-(4-((2,4-dioxothiazolidin-5-ylidene)methyl)phenoxy)pyrimidin-4-yl)oxy)piperidine-1-carboxylate] |
| 0.56 | 0.57 | 0.96 | COC(=O)N1CCC(Oc2cc(Oc3ccc(/C=C4\SC(=O)NC4=O)cc3)ncn2)CC1 [Example 35, (Z)-Methyl 4-((6-(4-((2,4-dioxothiazolidin-5-ylidene)methyl)phenoxy)pyrimidin-4-yl)oxy)piperidine-1-carboxylate] |
| 0.80 | 1.38 | 2.19 | COC(=O)N1CCC(Oc2cc(Oc3cccc(/C=C4\SC(=O)NC4=O)c3)ncn2)CC1 [Example 36, (Z)-Methyl 4-((6-(3-((2,4-dioxothiazolidin-5-ylidene)methyl)phenoxy)pyrimidin-4-yl)oxy)piperidine-1-carboxylate] |
